Series [1] deals with PANC-1 cells. Put plainly: RTCA matrigel invasion assay. Format: cell-based. The following applies: KLK7 silenced PANC-1 cells, compared to BC and NC groups. The method, then:
(§1) Cell matrigel invasion assay was similar to the cell migration assay, except that the microporous membrane between the upper and lower chambers was coated by a thin layer of matrigel (BD Biosciences). After 36 h, cells on the bottom side were fixed in cold methanol, stained with 0.4% crystal violet, and photographed (5 random fields for each sample).
(§2) The tested compound was added into the cell culture medium 3 h after PANC-1 cells were seeded. The cell prolifiation, migration and matrigel invasion was then assayed on RTCA.

The test system of series [2] is PANC-1 cells. Kind of series: RTCA cell migration assay. The following applies: KLK7 silenced PANC-1 cells, compared to BC and NC groups. The series is classed as cell-based. The method, then:
(§3) Cell migration assay was performed on RTCA xCELLigence DP (ACEA Biosciences). […] Migration was measured as the relative cell index change measured by the microelectronic sensors integrated into the bottom side of the membrane. Measurements were recorded every 15 min for 36 h.
as §2

The test system of series [3] is KLK7. Kind of series: KLK7 expression in lentivirus-infected PANC-1 cells (real-time PCR and western blotting). The series is classed as cell-based, human. The following applies: PANC-1 cells stably infected, compared to NC group. The text has this:
A scrambled shRNA sequence was used as the negative control (LV-NC-shRNA, 5′-[…]-3′). The shRNA sequences were synthesized and cloned into recombinant shRNA expression vectors (pGLV3-H1-GFP-Puro). The resulted plasmids were verified by DNA sequencing.
PANC-1 and HepG2 cell lines were obtained from the Chinese Type Culture Collection Center (Wuhan, China). PANC-1 cells were maintained in dulbecco’s modified Eagle medium supplemented with 10% fetal bovine serum, 100 units/ml penicillin G sodium, and 100 μg/ml streptomycin sulphate. HepG2 cells were maintained in RPMI 1640 medium supplemented with 10% fetal bovine serum, 100 units/ml penicillin G sodium, and 100 μg/ml streptomycin sulphate. PANC-1 and HepG2 cells pro-treated by 5 μg/ml polybrene were infected with the lentivirus and stably infected cells were selected in cell culture medium containing 4 μg/ml puromycin (Sigma-Aldrich). […]
Western blotting assay was performed with cell lysates collected from stably transfected cells. Total protein concentrations were measured with the bicinchoninic assay (BCA). The sample proteins (20μg for each lane) were analyzed first in 12% SDS-PAGE and then transferred onto polyvinylidine difuorides membranes. […] The chemiluminescent data were collected and grayscale values were evaluated with Image J.
(In general: In qPCR the cycle at which signal appears reflects the starting amount.)

Series [4] deals with HepG2 cells. Kind of series: RTCA proliferation, migration and invasion of KLK7 silenced HepG2 cells. Format: cell-based. The method, then: as §3, §1

Turning to “5′-GCACUGAGUUAAUUAACUGUGUUUCAAGAGAACACAGUUAAUUAACUCAGUGCUU-3′ (expressed or natural sequence) [LV-hKLK7-shRNA-4, PANC-1 cells infected with it are named KD4]”, the Invasion capacity entry in series [1] is listed as “almost fully inhibited”. Also, the “Decrease of migration rate” value in series [2] is given as “about 85%”. Further, in series [3], the “Decrease of KLK7 expression” value is on record as “around 90%”. Also, in series [4], the “Effect on invasion of HepG2 cells” value was “did not affect” and the “Effect on migration of HepG2 cells” value is given as “did not affect”.

The values above are taken from PMC5849182, “Kallikrein-related peptidase 7 is a potential target for the treatment of pancreatic cancer” (Oncotarget, 2018).
